Test results published in EPA's ToxRefDB 2.

How the values were obtained:
[1] = system: mouse; settings: Subchronic oral toxicity in rodents, b6c3f1, Gavage/Intubation, dose end: 13 week, group: systemic, systemic / pathology microscopic / kidney / vacuolization cytoplasmic + systemic / pathology microscopic / liver / vacuolization cytoplasmic…
[2] = system: rat; settings: Combined chronic toxicity/carcinogenicity, fischer, Oral, Gavage/Intubation, dose end: 2 year, group: systemic
[3] = system: rat; settings: Subchronic oral toxicity in rodents, fischer, Gavage/Intubation, dose end: 13 week, group: systemic
[4] = system: mouse; settings: Combined chronic toxicity/carcinogenicity, b6c3f1, Oral, Gavage/Intubation, dose end: 2 year, group: systemic
[5] = system: rat; settings: Chronic toxicity, wistar, Oral, Feed, dose end: 105 week, group: systemic
[6] = system: dog; settings: Chronic toxicity, beagle, Oral, Feed, dose end: 104 week, group: systemic
[7] = system: rabbit; settings: Prenatal developmental toxicity study, new zealand white, Oral, Gavage/Intubation, dose end: 18 GD
[8] = system: rat; settings: Multigenerational reproductive toxicity study, other, Oral, Feed, dose end: 2 generation
[9] = system: rat; settings: Subchronic oral toxicity in rodents, wistar, Feed, dose end: 3 month, group: systemic, systemic / organ weight / liver / nos
[10] = system: mouse; settings: Carcinogenicity, cd1, Oral, Feed, dose end: 24 month, group: systemic
[11] = system: rat; settings: Prenatal developmental toxicity study, Crl: CD BR, Oral, Gavage/Intubation, dose end: 15 GD
[12] = system: rabbit; settings: Prenatal developmental toxicity study, other, Oral, Gavage/Intubation, dose end: 18 GD
[13] = system: rat; settings: Prenatal developmental toxicity study, sprague dawley, Oral, Gavage/Intubation, dose end: 19 GD
[14] = system: rat; settings: Subchronic dermal toxicity, other, Topical, dose end: 90 day, group: systemic, systemic / pathology gross / skin / lesion(s) (nos)
[15] = system: rat; settings: Subchronic inhalation toxicity, sprague dawley, Nose-Only, dose end: 90 day, group: systemic, systemic / pathology microscopic / nose / degeneration + systemic / pathology microscopic / nose / hyperkeratosis + systemic / pathology …
[16] = system: rat; settings: Sub-acute dermal toxicity, Sprague-Dawley, Topical, dose end: 29 day, group: systemic, systemic / in life observation / clinical signs / anogenital staining
[17] = system: rat; settings: Subchronic oral toxicity in rodents, sprague dawley, Feed, dose end: 13 week, group: systemic
[18] = systemic / in life observation / body weight / body weight + systemic / in life observation / body weight / body weight gain
[19] = systemic / in life observation / body weight / body weight + systemic / in life observation / mortality / mortality
[20] = systemic / in life observation / body weight / body weight + systemic / pathology microscopic / kidney / vacuolization cytoplasmic + …
[21] = systemic / pathology microscopic / kidney / vacuolization cytoplasmic + systemic / pathology microscopic / liver / vacuolization cytoplasmic…
[22] = systemic / in life observation / body weight / body weight gain + systemic / organ weight / kidney / absolute + systemic / organ weight / …
[23] = systemic / organ weight / kidney / relative to body weight + systemic / organ weight / pancreas / relative to body weight + systemic / organ…
[24] = group: developmental, systemic / in life observation / body weight / fetal weight
[25] = group: maternal, reproductive / reproductive performance / reproductive performance other / runts
[26] = group: offspring, systemic / in life observation / body weight / offspring (pup) weight
[27] = group: parental, systemic / in life observation / body weight / body weight gain + systemic / clinical chemistry / gamma glutamyl transferase (ggt) / gamma …
[28] = group: parental, systemic / in life observation / body weight / body weight gain + systemic / in life observation / food consumption / food consumption + …
[29] = systemic / organ weight / liver / relative to body weight
[30] = group: developmental, developmental / developmental malformation / bone / incomplete ossification
[31] = group: developmental, developmental / developmental malformation / bone / incomplete ossification + systemic / in life observation / body weight / fetal weight + …
[32] = group: maternal, systemic / in life observation / body weight / body weight gain + systemic / in life observation / food consumption / food consumption + …
[33] = group: developmental, developmental / developmental malformation / bone / [other]
[34] = group: maternal, systemic / in life observation / body weight / body weight gain
[35] = group: maternal, systemic / in life observation / body weight / body weight gain + systemic / in life observation / food consumption / food consumption
[36] = group: developmental, systemic / in life observation / body weight / fetal weight + developmental / developmental malformation / bone / bipartite ossification + …
[37] = group: maternal, systemic / in life observation / clinical signs / salivation
[38] = group: maternal, systemic / in life observation / clinical signs / salivation + reproductive / reproductive performance / resorptions / resorptions + …
[39] = systemic / pathology microscopic / spinal cord / vacuolization + systemic / pathology microscopic / brain / vacuolization
[40] = systemic / pathology microscopic / spinal cord / vacuolization + systemic / pathology microscopic / brain / vacuolization + systemic / organ…

CC(=O)OC(C)c1ccccc1 (stereo not drawn) [Benzenemethanol, alpha-methyl-, acetate]
LEL [1]: 2000 mg/kg/day
LOAEL [1]: 2000 mg/kg/day
NEL [1]: 1000 mg/kg/day
NOAEL [1]: 1000 mg/kg/day
LEL [2, 18]: 1000 mg/kg/day
NEL [2, 18]: < 1000 mg/kg/day
LOAEL ([2]; systemic / in life observation / body weight / body weight + systemic / pathology microscopic / kidney / nephropathy): 2000 mg/kg/day
NOAEL ([2]; systemic / in life observation / body weight / body weight + systemic / pathology microscopic / kidney / nephropathy + systemic / in life …): 1000 mg/kg/day
LOAEL ([3]; systemic / in life observation / body weight / body weight): 4000 mg/kg/day
NEL [3, 19]: 2000 mg/kg/day
NOAEL [3, 19]: 2000 mg/kg/day
LEL ([3]; systemic / in life observation / body weight / body weight + systemic / in life observation / mortality / mortality + systemic / pathology …): 4000 mg/kg/day
LOAEL [4, 20]: 1000 mg/kg/day
NOAEL [4, 20]: 500 mg/kg/day
LEL [4, 21]: 500 mg/kg/day
NEL [4, 21]: < 500 mg/kg/day

CSc1nnc(C(C)(C)C)c(=O)n1N [Metribuzin]
LOAEL ([5]; systemic / in life observation / body weight / body weight gain): 14.4 mg/kg/day
NEL [5, 22]: 1.3 mg/kg/day
NOAEL [5, 22]: 5.27 mg/kg/day
LEL ([5]; systemic / organ weight / lung / relative to body weight): 1.87 mg/kg/day
LOAEL ([6]; systemic / clinical chemistry / cholesterol / cholesterol + systemic / hematology / blood clotting / blood clotting - prothrombin time + …): 37.5 mg/kg/day
LEL [6, 23]: 0.625 mg/kg/day
NEL [6, 23]: < 0.625 mg/kg/day
NOAEL ([6]; systemic / organ weight / kidney / relative to body weight + systemic / organ weight / pancreas / relative to body weight + systemic / …): 2.5 mg/kg/day
LEL [7, 24]: 45 mg/kg/day
LOAEL [7, 24]: 45 mg/kg/day
NEL [7, 24]: 15 mg/kg/day
NOAEL [7, 24]: 15 mg/kg/day
LOAEL ([7]; group: maternal, reproductive / reproductive performance / aborted / aborted + systemic / in life observation / body weight / body weight): 135 mg/kg/day
NOAEL ([7]; group: maternal, reproductive / reproductive performance / aborted / aborted + systemic / in life observation / body weight / body weight + reproductive / …): 45 mg/kg/day
LEL [7, 25]: 45 mg/kg/day
NEL [7, 25]: 15 mg/kg/day
LEL [8, 26]: 7.5 mg/kg/day
LOAEL [8, 26]: 7.5 mg/kg/day
NEL [8, 26]: 1.5 mg/kg/day
NOAEL [8, 26]: 1.5 mg/kg/day
LEL [8, 27]: 7.5 mg/kg/day
LOAEL [8, 27]: 7.5 mg/kg/day
NEL [8, 28]: 1.5 mg/kg/day
NOAEL [8, 28]: 1.5 mg/kg/day
LEL [9]: 3 mg/kg/day
LOAEL [9]: 3 mg/kg/day
NEL [9]: 1.25 mg/kg/day
NOAEL [9]: 1.25 mg/kg/day
LOAEL ([10]; systemic / hematology / hematocrit (hct) / hematocrit (hct) + systemic / hematology / hemoglobin (hgb) / hemoglobin (hgb)): 567 mg/kg/day
NOAEL ([10]; systemic / hematology / hematocrit (hct) / hematocrit (hct) + systemic / hematology / hemoglobin (hgb) / hemoglobin (hgb) + systemic / organ…): 139 mg/kg/day
LEL [10, 29]: 35 mg/kg/day
NEL [10, 29]: < 35 mg/kg/day
LEL [11, 30]: 25 mg/kg/day
NEL [11, 30]: < 25 mg/kg/day
LOAEL [11, 31]: 200 mg/kg/day
NOAEL [11, 31]: 70 mg/kg/day
LEL [11, 32]: 25 mg/kg/day
LOAEL [11, 32]: > 200 mg/kg/day
NEL [11, 32]: < 25 mg/kg/day
NOAEL [11, 32]: ≥ 200 mg/kg/day
LEL [12, 33]: 85 mg/kg/day
LOAEL [12, 33]: 85 mg/kg/day
NEL [12, 33]: 30 mg/kg/day
NOAEL [12, 33]: 30 mg/kg/day
LEL [12, 34]: 30 mg/kg/day
LOAEL [12, 34]: 30 mg/kg/day
NEL [12, 35]: 10 mg/kg/day
NOAEL [12, 35]: 10 mg/kg/day

N#Cc1c(-c2ccc(Cl)cc2)[nH]c(C(F)(F)F)c1Br [Tralopyril]
LEL [13, 24]: 10 mg/kg/day
LOAEL [13, 24]: 10 mg/kg/day
NEL [13, 36]: 5 mg/kg/day
NOAEL [13, 36]: 5 mg/kg/day
LEL [13, 37]: 10 mg/kg/day
LOAEL [13, 37]: 10 mg/kg/day
NEL [13, 38]: 5 mg/kg/day
NOAEL [13, 38]: 5 mg/kg/day
LEL [14]: 300 mg/kg/day
LOAEL [14]: 300 mg/kg/day
NEL [14]: 100 mg/kg/day
NOAEL [14]: 100 mg/kg/day
LEL [15]: 1.4 ppm
LOAEL [15]: 1.4 ppm
NEL [15]: < 1.4 ppm
NOAEL [15]: < 1.4 ppm
LEL [16]: 1000 mg/kg/day
LOAEL [16]: > 1000 mg/kg/day
NEL [16]: 300 mg/kg/day
NOAEL [16]: ≥ 1000 mg/kg/day
LOAEL [17, 39]: 6.3 mg/kg/day
NOAEL [17, 39]: < 6.3 mg/kg/day
LEL [17, 40]: 6.3 mg/kg/day
NEL [17, 40]: < 6.3 mg/kg/day
